{"source": "patent US7563794B2", "about": "“Ziprasidone free from colored impurities and a process for its preparation” (Dipharma Francis S.r.l., priority 2005, dated 2009)", "key": {"[1]": {"conditions": "reported by EP 965 343; cited from earlier work"}, "[2]": {"conditions": "cited from earlier work"}, "[3]": {"conditions": "particles having diameter lower than or equal to 85 μm, aqueous solutions at physiological pH, EP 965 343; cited from earlier work"}, "[4]": {"assay": "hygroscopicity / absorption of atmospheric humidity (water content by Karl-Fischer)", "assay_type": "physicochemical", "conditions": "particles having mean diameter D[4,3] higher than 85 μm (150 μm vs known 50 μm sample, 25° C., 50% relative humidity, FIG. 2)", "experimental": "The samples water content was determined by the known Karl—Fischer technique. “Approximatively” and “about” herein mean around ±10% of the indicated value."}, "[5]": {"assay": "water solubility", "assay_type": "physicochemical", "conditions": "particles having mean diameter D[4,3] higher than 85 μm"}, "[6]": {"conditions": "cited from earlier work", "remark": "listed apart in the source"}}, "note": "Like-named read-outs stand apart in the source and are kept apart here."}
{"smiles": "Cl.O=C1Cc2cc(CCN3CCN(c4nsc5ccccc45)CC3)c(Cl)cc2N1", "note": "[ziprasidone hydrochloride, 5-(2-(4-(1,2-benzisothiazol-3-yl)-1-piperazinyl)-ethyl)-6-chloro-1,3-dihydro-2H-indol-2-one hydrochloride]", "values": [{"measurement": "water solubility", "setting": "[1]", "value": "sparingly water-soluble"}, {"measurement": "permeability through biological membranes", "setting": "[2]", "value": "high permeability"}, {"measurement": "amount of the compound that dissolves within 45 minutes", "setting": "[3]", "value": "at least 70%"}]}
{"smiles": "Cl.O=C1Cc2cc(CCN3CCN(c4nsc5ccccc45)CC3)c(Cl)cc2N1", "note": "[anhydrous ziprasidone hydrochloride]", "values": [{"measurement": "resistance to absorption of atmospheric humidity", "setting": "[4]; listed as Anhydrous ziprasidone hydrochloride", "value": "higher resistance to the absorption of atmospheric humidity"}, {"measurement": "resistance to absorption of atmospheric humidity", "setting": "[4]; hydrochloride", "value": "improved resistance to atmospheric humidity"}, {"measurement": "water solubility", "setting": "[5]", "value": "substantially unchanged"}, {"measurement": "hygroscopicity", "setting": "[6]; exposed to air, spontaneously converts to the hydrate form", "value": "highly hygroscopic"}, {"measurement": "hygroscopicity", "setting": "[6]; particles with diameter lower than or equal to 85 μm", "value": "high hygroscopicity"}]}
